Assay results as given in patent US7173004B2, “Macrocyclic isoquinoline peptide inhibitors of hepatitis C virus” (Bristol-Myers Squibb Company, priority 2003, dated 2007).

target: T1, HCV NS3/4A protease complex, BMS strain (genotype 1a) (UniProt P27958, C1454S/C1711G, species not given/STRAIN_BMS); assay: Recombinant HCV NS3/4A protease complex FRET peptide assay, BMS strain; format: biochemical; conditions: NS3/4A BMS strain; activity range symbols
T1 construct: b1001: DNA encoding the recombinant HCV NS3/4A protease complex (amino acids 1027 to 1711) ... a three-lysine solubilizing tail was added at the 3′-end of the NS4A coding region; fused on or other part: Three-lysine solubilising tail at the C-terminus of NS4A; A His tag is implied by the pET21b vector and Ni-NTA purification
Summary of the method: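 Recombinant NS3/4A (aa 1027–1711) from H77C, J4L6S or BMS strains, with C1454S and C1711G mutations and three-lysine tail, expressed in E. coli and Ni-NTA/gel-filtration purified to >90%. Inhibition of cleavage of a FRET peptide substrate measured.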

Structure (SMILES) | IC50 [nM]
CC(C)(C)COC(=O)N1CCCC=CC2CC2(C(=O)NS(=O)(=O)C2CC2)NC(=O)C2CC(Oc3nccc4ccccc34)CN2C(=O)C(NC(=O)OC(C)(C)C)C1 (stereo not drawn) [Compound 149] | < 50
COC(=O)N1CCC/C=C\[C@@H]2C[C@@]2(C(=O)NS(=O)(=O)C2CC2)NC(=O)[C@@H]2C[C@@H](Oc3nccc4ccccc34)CN2C(=O)[C@@H](NC(=O)OC(C)(C)C)C1 [Compound 148] | < 50
CC(C)(C)OC(=O)NC1CCCCCC=CC2CC2(C(=O)NS(=O)(=O)C2CC2)NC(=O)C2CC(Oc3nccc4c(Cl)cccc34)CN2C1=O (stereo not drawn) [Compound 130] | < 50
COc1ccc2c(OC3CC4C(=O)NC5(C(=O)NS(=O)(=O)C6CC6)CC5C=CCOCCCC(NC(=O)OC5CCCC5)C(=O)N4C3)nc(-c3ccccc3)cc2c1 (stereo not drawn) [Compound 99] | < 50
CC(C)(OC(=O)NC1CCCCCC=CC2CC2(C(=O)NS(=O)(=O)C2CC2)NC(=O)C2CC(Oc3nccc4ccccc34)CN2C1=O)C(Cl)(Cl)Cl (stereo not drawn) [Compound 124] | < 50
COc1ccc2c(OC3CC4C(=O)NC5(C(=O)NS(=O)(=O)C6CC6)CC5C=CCCCOCC(NC(=O)NC(C)(C)C)C(=O)N4C3)nccc2c1 (stereo not drawn) [Compound 86] | < 50
COc1ccc2c(O[C@@H]3C[C@H]4C(=O)N[C@]5(C(=O)NS(=O)(=O)C6CC6)C[C@H]5/C=C\COCC[C@H](NC(=O)OC(C)(C)C)C(=O)N4C3)nccc2c1 [Compound 141, [(Z)-(1S,4R,13S,17R)-4-cyclopropanesulfonylaminocarbonyl-17-(6-methoxy-isoquinolin-1-yloxy)-2,14-dioxo-10-oxa-3,15-diaza-tricyclo[13.3.0.0^4,6]octadec-7-en-13-yl]-carbamic acid tert-butyl ester] | 50 to 500
COc1ccc2c(OC3CC4C(=O)NC5(C(=O)NS(=O)(=O)C6CC6)CC5C=CCCCOCC(NC(=O)OC5CCCC5)C(=O)N4C3)nc(-c3ccccc3)cc2c1 (stereo not drawn) [Compound 94] | < 50
COc1ccc2c(OC3CC4C(=O)NC5(C(=O)NS(=O)(=O)C6CC6)CC5C=CCCCSC(C)(C)C(N)C(=O)N4C3)nccc2c1 (stereo not drawn) [Compound 83] | 500 to 5000
CCC1(S(=O)(=O)NC(=O)C23CC2C=CCCCSCC(NC(=O)OC(C)(C)C)C(=O)N2CC(Oc4nccc5cc(OC)ccc45)CC2C(=O)N3)CC1 (stereo not drawn) [Compound 121] | < 50
CCSC(=O)NC1CCCCCC=CC2CC2(C(=O)NS(=O)(=O)C2CC2)NC(=O)C2CC(Oc3nccc4ccccc34)CN2C1=O (stereo not drawn) [Compound 118] | < 50
CC(C)NC(=O)NC1CCCCCC=CC2CC2(C(=O)NS(=O)(=O)C2CC2)NC(=O)C2CC(Oc3nccc4ccccc34)CN2C1=O (stereo not drawn) [Compound 128] | < 50
CC(C)(C)OC(=O)N[C@H]1CN(S(C)(=O)=O)CCC/C=C\[C@@H]2C[C@@]2(C(=O)NS(=O)(=O)C2CC2)NC(=O)[C@@H]2C[C@@H](Oc3nccc4ccccc34)CN2C1=O [Compound 153] | < 50
COc1ccc2c(OC3CC4C(=O)NC5(C(=O)NS(=O)(=O)C6CC6)CC5C=CCCCOCC(NC(=O)OC(C)C)C(=O)N4C3)nc(-c3ccc(N(C)C)cc3)cc2c1 (stereo not drawn) [Compound 109] | < 50
COc1ccc2c(OC3CC4C(=O)NC5(C(=O)NS(=O)(=O)C6CC6)CC5C=CCCCCCC(NC(=O)OC(C)(C)C)C(=O)N4C3)nccc2c1OC (stereo not drawn) [Compound 134] | < 50
CC(C)(C)OC(=O)N[C@H]1CNCCC/C=C\[C@@H]2C[C@@]2(C(=O)NS(=O)(=O)C2CC2)NC(=O)[C@@H]2C[C@@H](Oc3nccc4ccccc34)CN2C1=O [Compound 151] | < 50
COc1ccc2c(OC3CC4C(=O)NC5(C(=O)NS(=O)(=O)C6CC6)CC5C=CCCCSC(C)(C)C(NC(=O)NC5CCCC5)C(=O)N4C3)nccc2c1 (stereo not drawn) [Compound 82] | < 50
COc1ccc2c(OC3CC4C(=O)NC5(C(=O)NS(=O)(=O)C6CC6)CC5C=CCOCCCC(NC(=O)Nc5ccc(C#N)cc5)C(=O)N4C3)nc(-c3ccccc3)cc2c1 (stereo not drawn) [Compound 105] | < 50
COc1ccc2c(OC3CC4C(=O)NC5(C(=O)NS(=O)(=O)C6CC6)CC5C=CCOCCCC(NC(=S)NC5CC5)C(=O)N4C3)nc(-c3ccccc3)cc2c1 (stereo not drawn) [Compound 104] | < 50
COc1ccc2c(OC3CC4C(=O)NC5(C(=O)NS(=O)(=O)C6CC6)CC5C=CCCCOCC(NC(=O)NC(C)(C)C)C(=O)N4C3)nc(-c3ccccc3)cc2c1 (stereo not drawn) [Compound 92] | < 50
O=CNC1CCCCCC=CC2CC2(C(=O)NS(=O)(=O)C2CC2)NC(=O)C2CC(Oc3nccc4ccccc34)CN2C1=O (stereo not drawn) [Compound 119] | < 50
CC(C)(C)OC(=O)NC1CN(C(=O)C2CC2)CCCC=CC2CC2(C(=O)NS(=O)(=O)C2CC2)NC(=O)C2CC(Oc3nccc4ccccc34)CN2C1=O (stereo not drawn) [Compound 152] | < 50
CC(=O)N1CCC/C=C\[C@@H]2C[C@@]2(C(=O)NS(=O)(=O)C2CC2)NC(=O)[C@@H]2C[C@@H](Oc3nccc4ccccc34)CN2C(=O)[C@@H](NC(=O)OC(C)(C)C)C1 [Compound 146] | < 50
CN1CCC/C=C\[C@@H]2C[C@@]2(C(=O)NS(=O)(=O)C2CC2)NC(=O)[C@@H]2C[C@@H](Oc3nccc4ccccc34)CN2C(=O)[C@@H](NC(=O)OC(C)(C)C)C1 [Compound 147] | < 50
